Laboratory results published in patent publication US11078168B2, “Substituted N-hydroxyamidinoheterocycles as modulators of indoleamine 2,3-dioxygenase” (PHENEX DISCOVERY VERWALTUNGS-GMBH, priority 2016, dated 2021).

Biological target: T1, Indoleamine 2,3-dioxygenase (Homo sapiens, UniProt P14902)
T1 construct: endogenous in cells; host or cells: SKOV-3 (ATCC HTB-77), stimulated with interferon gamma
Experiment: SKOV-3 cellular Indoleamine 2,3-dioxygenase assay
Details: SKOV-3 cells, 50 ng/ml Interferon gamma, 100 μM L-Tryptophan, 24 hours, N-Formylkynurenin fluorescence detection; read-out: cell based activity
Outline: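 SKOV-3 cells stimulated with 50 ng/ml interferon gamma, exposed to compound dilutions with L-tryptophan at 100 µM final for 24 h at 37 °C. N-formylkynurenine detected by 200 mM 3-methylpiperidine, 65 °C for 20 min, fluorescence ex 405/em 535 nm.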

T1 sequence (P14902 whole entry): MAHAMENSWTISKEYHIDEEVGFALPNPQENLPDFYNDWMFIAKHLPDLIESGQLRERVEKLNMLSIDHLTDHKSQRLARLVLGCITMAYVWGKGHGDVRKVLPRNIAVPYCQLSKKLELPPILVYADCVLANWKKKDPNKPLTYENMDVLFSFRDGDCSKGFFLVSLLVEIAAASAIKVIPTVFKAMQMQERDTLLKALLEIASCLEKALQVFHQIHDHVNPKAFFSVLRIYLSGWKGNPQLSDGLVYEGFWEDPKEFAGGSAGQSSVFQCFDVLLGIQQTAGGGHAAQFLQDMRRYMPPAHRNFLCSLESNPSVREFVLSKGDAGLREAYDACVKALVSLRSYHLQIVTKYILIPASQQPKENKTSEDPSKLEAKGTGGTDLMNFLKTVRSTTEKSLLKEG

Structure (SMILES)	IC50 [nM]
CS(=N)(=O)NCCOc1nonc1C(=NO)Nc1ccc(F)c(Cl)c1 (stereo not drawn) [Example 21, N-(3-Chloro-4-fluorophenyl)-N-hydroxy-4-(2-(methylsulfonoamidimidamido)ethoxy)-1,2,5-oxadiazole-3-carboximidamide]	100 to 1000
COc1nonc1C(=NO)Nc1cccc(CCCl)c1 [Example 22, N-(3-(2-Chloroethyl)phenyl)-N′-hydroxy-4-methoxy-1,2,5-oxadiazole-3-carboximidamide]	> 1000
CS(=O)(=O)NCCSc1nonc1/C(=N/O)Nc1ccc(F)c(Br)c1 [Example 100, N-(3-Bromo-4-fluorophenyl)-N′-hydroxy-4-((2-(methylsulfonamido)ethyl)thio)-1,2,5-oxadiazole-3-carboximidamide]	< 100
NS(=O)(=O)NCCSc1nonc1/C(=N/O)Nc1ccc(F)c(Br)c1 [Example 101, N-(3-Bromo-4-fluorophenyl)-N′-hydroxy-4-((2-(sulfamoylamino)ethyl)thio)-1,2,5-oxadiazole-3-carboximidamide]	< 100
Nc1c(NCCSc2nonc2C(=NO)Nc2ccc(F)c(Cl)c2)c(=O)c1=O [Example 102, 4-((2-((2-Amino-3,4-dioxocyclobut-1-en-1-yl)amino)ethyl)thio)—N-(3-chloro-4-fluorophenyl)-N′-hydroxy-1,2,5-oxadiazole-3-carboximidamide]	< 100
ON=C(Nc1ccc(F)c(Cl)c1)c1nonc1SCc1ccccc1 [Example 103, 4-(Benzylthio)—N-(3-chloro-4-fluorophenyl)-N′-hydroxy-1,2,5-oxadiazole-3-carboximidamide]	100 to 1000
CSc1nonc1/C(=N/O)Nc1ccc(F)c(Br)c1 [Example 103/1, N-(3-bromo-4-fluorophenyl)-N′-hydroxy-4-(methylthio)-1,2,5-oxadiazole-3-carboximidamide]	< 100
ON=C(Nc1ccc(F)c(Br)c1)c1nonc1SCC(F)(F)F [Example 103/2]	< 100
ON=C(Nc1ccc(F)c(Br)c1)c1nonc1SC1CC1 [Example 103/3]	< 100
O=S(=O)(Cc1ccccc1)c1nonc1C(=NO)Nc1ccc(F)c(Cl)c1 [Example 104, 4-(Benzylsulfonyl)-N-(3-chloro-4-fluorophenyl)-N′-hydroxy-1,2,5-oxadiazole-3-carboximidamide]	> 1000
C[S+]([O-])c1nonc1C(=NO)Nc1ccc(F)c(Br)c1 (stereo not drawn) [Example 105, N-(3-Bromo-4-fluorophenyl)-N′-hydroxy-4-(methylsulfinyl)-1,2,5-oxadiazole-3-carboximidamide]	100 to 1000
CS(=N)(=O)c1nonc1C(=NO)Nc1ccc(F)c(Br)c1 (stereo not drawn) [Example 106, N-(3-Bromo-4-fluorophenyl)-N′-hydroxy-4-(S-methylsulfonimidoyl)-1,2,5-oxadiazole-3-carboximidamide]	> 1000
O=C(NCCSc1nonc1C(=NO)Nc1ccc(F)c(C(F)F)c1)C(O)CO (stereo not drawn) [Example 107, N-(2-((4-(N-(3-(Difluoromethyl)-4-fluorophenyl)-N′-hydroxycarbamimidoyl)-1,2,5-oxadiazol-3-yl)thio)ethyl)-2,3-dihydroxypropanamide]	< 100
CC1(O)CN(CCSc2nonc2C(=NO)Nc2ccc(F)c(C(F)F)c2)C1 [Example 108, N-(3-(Difluoromethyl)-4-fluorophenyl)-N′-hydroxy-4-((2-(3-hydroxy-3-methylazetidin-1-yl)ethyl)thio)-1,2,5-oxadiazole-3-carboximidamide]	< 100
Nc1c(NCC[S+]([O-])c2nonc2C(=NO)Nc2ccc(F)c(Cl)c2)c(=O)c1=O (stereo not drawn) [Example 109, 4-((2-((2-Amino-3,4-dioxocyclobut-1-en-1-yl)amino)ethyl)sulfinyl)-N-(3-chloro-4-fluorophenyl)-N′-hydroxy-1,2,5-oxadiazole-3-carboximidamide]	100 to 1000
Nc1nnc(NCCSc2nonc2C(=NO)Nc2ccc(F)c(C(F)F)c2)[nH]1 [Example 110, 4-((2-((5-Amino-4H-1,2,4-triazol-3-yl)amino)ethyl)thio)—N-(3-(difluoromethyl)-4-fluorophenyl)-N′-hydroxy-1,2,5-oxadiazole-3-carboximidamide]	100 to 1000
Cc1nnc(NCCSc2nonc2C(=NO)Nc2ccc(F)c(C(F)F)c2)o1 [Example 111, N-(3-(Difluoromethyl)-4-fluorophenyl)-N′-hydroxy-4-((2-((5-methyl-1,3,4-oxadiazol-2-yl)amino)ethyl)thio)-1,2,5-oxadiazole-3-carboximidamide]	< 100

Structure (SMILES)	IC50 [nM]
NS(=O)(=O)NCCSc1nonc1C(=NO)Nc1cccc(C(F)F)c1 [Example 112, N-(3-(Difluoromethyl)phenyl)-N′-hydroxy-4-((2-(sulfamoylamino)ethyl)thio)-1,2,5-oxadiazole-3-carboximidamide]	< 100
NS(=O)(=O)NCCSc1nonc1C(=NO)Nc1ccnc(C(F)(F)F)c1 [Example 112/1, N′—Hydroxy-4-((2-(sulfamoylamino)ethyl)thio)—N-(2-(trifluoromethyl)pyridin-4-yl)-1,2,5-oxadiazole-3-carboximidamide]	100 to 1000
NC(=O)C(=O)NCCSc1nonc1C(=NO)Nc1ccc(F)c(Cl)c1 [Example 116, N^1-(2-((4-(N-(3-Chloro-4-fluorophenyl)-N′-hydroxycarbamimidoyl)-1,2,5-oxadiazol-3-yl)thio)ethyl)oxalamide]	< 100
O=C(NCCSc1nonc1C(=NO)Nc1ccc(F)c(Cl)c1)c1nnn[nH]1 [Example 117, N-(2-((4-(N-(3-Chloro-4-fluorophenyl)-N′-hydroxycarbamimidoyl)-1,2,5-oxadiazol-3-yl)thio)ethyl)-1H-tetrazole-5-carboxamide]	100 to 1000
NC(=O)C(F)(F)C(=O)NCCSc1nonc1C(=NO)Nc1ccc(F)c(C(F)F)c1 [Example 118]	< 100
NC(=O)CC(=O)NCCSc1nonc1C(=NO)Nc1ccc(F)c(C(F)F)c1 [Example 119]	< 100
CS(=N)(=O)NCCSc1nonc1C(=NO)Nc1ccc(F)c(Cl)c1 (stereo not drawn) [Example 120]	< 100
CS(=O)(=O)Nc1ccc(C(=O)NCCSc2nonc2C(=NO)Nc2ccc(F)c(Cl)c2)cn1 [Example 121, N-(2-((4-(N-(3-Chloro-4-fluorophenyl)-N′-hydroxycarbamimidoyl)-1,2,5-oxadiazol-3-yl)thio)ethyl)-6-(methylsulfonamido)nicotinamide]	100 to 1000
CS(=N)(=O)c1ccc(C(=O)NCCSc2nonc2C(=NO)Nc2ccc(F)c(C(F)F)c2)cc1 (stereo not drawn) [Example 122, N-(2-((4-(N-(3-(Difluoromethyl)-4-fluorophenyl)-N′-hydroxycarbamimidoyl)-1,2,5-oxadiazol-3-yl)thio)ethyl)-4-(S-methylsulfonimidoyl)benzamide]	< 100
O=C(NCCSc1nonc1C(=NO)Nc1ccc(F)c(Cl)c1)C1(O)CNC1 [Example 123, N-(2-((4-(N-(3-Chloro-4-fluorophenyl)-N′-hydroxycarbamimidoyl)-1,2,5-oxadiazol-3-yl)thio)ethyl)-3-hydroxyazetidine-3-carboxamide]	100 to 1000
CCN1CC(O)(C(=O)NCCSc2nonc2C(=NO)Nc2ccc(F)c(C(F)(F)F)c2)C1 [Example 124, 1-Ethyl-N-(2-((4-(N-(4-fluoro-3-(trifluoromethyl)phenyl)-N′-hydroxycarbamimidoyl)-1,2,5-oxadiazol-3-yl)thio)ethyl)-3-hydroxyazetidine-3-carboxamide]	< 100
CN1CCC1C(=O)NCCSc1nonc1C(=NO)Nc1ccc(F)c(C(F)F)c1 (stereo not drawn) [Example 124/1, N-(2-((4-(N-(3-(Difluoromethyl)-4-fluorophenyl)-N′-hydroxycarbamimidoyl)-1,2,5-oxadiazol-3-yl)thio)ethyl)-1-methylazetidine-2-carboxamide]	< 100
N#CC1(C(=O)NCCSc2nonc2C(=NO)Nc2ccc(F)c(C(F)F)c2)CNC1 [Example 125, 3-Cyano-N-(2-((4-(N-(3-(difluoromethyl)-4-fluorophenyl)-N′-hydroxycarbamimidoyl)-1,2,5-oxadiazol-3-yl)thio)ethyl)azetidine-3-carboxamide]	100 to 1000
NC(=O)C1(C(=O)NCCSc2nonc2C(=NO)Nc2ccc(F)c(C(F)F)c2)CNC1 [Example 126]	100 to 1000
CS(=N)(=O)CC(=O)NCCSc1nonc1/C(=N/O)Nc1ccc(F)c(Br)c1 (stereo not drawn) [Example 127, N-(2-((4-(N-(3-Bromo-4-fluorophenyl)-N′-hydroxycarbamimidoyl)-1,2,5-oxadiazol-3-yl)thio)ethyl)-2-(S-methylsulfonimidoyl)acetamide]	< 100
NS(=O)(=O)NCC(=O)NCCSc1nonc1/C(=N/O)Nc1ccc(F)c(C(F)F)c1 [Example 128, N-(2-((4-(N-(3-(Difluoromethyl)-4-fluorophenyl)-N′-hydroxycarbamimidoyl)-1,2,5-oxadiazol-3-yl)thio)ethyl)-2-(sulfamoylamino)acetamide]	< 100
